Measurements taken from patent publication US20110263647A1 (AMGEN INC., priority 2009, published 2011).
Structures can show the parent of a compound that is named as a salt. Where two headings read alike, the source gives them in different places.

How the values were obtained:
[1] = target: T1, CYP3A4 (Homo sapiens, UniProt P08684); assay: CYP3A4 inhibition assay (midazolam, pooled human liver microsomes); format: in vitro ADME; conditions: pH 7.4, probe midazolam (2.5 μM), test compound 3 μM, human liver microsomes 0.1 mg/mL
T1 construct: tissue XenoTech LLC Lot 0610351; host or cells: pooled human liver microsomes
T1 sequence (P08684 whole entry): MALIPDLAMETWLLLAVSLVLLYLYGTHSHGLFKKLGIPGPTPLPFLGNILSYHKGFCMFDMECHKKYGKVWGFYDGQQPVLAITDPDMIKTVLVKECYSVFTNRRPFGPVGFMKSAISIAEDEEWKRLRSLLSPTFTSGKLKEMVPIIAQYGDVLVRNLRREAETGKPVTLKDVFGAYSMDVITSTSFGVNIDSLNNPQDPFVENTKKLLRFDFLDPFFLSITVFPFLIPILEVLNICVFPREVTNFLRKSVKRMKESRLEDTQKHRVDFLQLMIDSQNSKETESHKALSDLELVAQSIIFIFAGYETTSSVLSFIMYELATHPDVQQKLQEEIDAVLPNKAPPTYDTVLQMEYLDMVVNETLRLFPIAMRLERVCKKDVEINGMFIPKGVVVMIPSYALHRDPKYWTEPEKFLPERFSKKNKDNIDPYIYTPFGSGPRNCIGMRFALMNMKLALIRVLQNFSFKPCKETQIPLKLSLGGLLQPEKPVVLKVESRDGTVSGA
Description: Midazolam was obtained from BD Gentest (Waltham, Mass.); 1′ hydroxy midazolam and 1-hydroxy bufuralol maleate were obtained from Ultrafine Chemicals (Manchester, UK); bufuralol HCl, ketoconazole, quinidine, potassium phosphate, and NADPH were obtained from Sigma (St. Louis, Mo.). Test compounds were prepared at 10 mM concentration in DMSO (Mallinckrodt Inc., St. Louis, Mo.). NADPH was prepared at 10 mM concentration in a pH 7.4 buffer (8.3 mg/mL 66.7 mM potassium phosphate). Midazolam was prepared at 1 mM concentration in deionized water (Amgen, Thousand Oaks, Calif.), and bufuralol was prepared at 2 mM concentration in deionized water. A stock solution of ketoconazole was prepared at 37 mM concentration in DMSO, and quinidine was prepared at 500 uM concentration in DMSO. Formic acid in acetonitrile (0.05%, ACN) was used as a quench solution (Sigma-Aldrich, St. Louis, Mo.). All solvents used for LC/MS were of chromatographic grade. Pooled human liver microsomes (Lot 0610351) were purchased from XenoTech LLC, (Lenexa, Kans.).
Pooled human liver microsomes (0.1 mg/mL) were incubated at 37° C. in a phosphate buffer (66.7 mM potassium phosphate at pH 7.4) with the selective CYP3A substrate midazolam at a concentration of 2.5 μM in the presence and absence of test compound (3 μM). The reaction was started with the addition of NADPH (1 mM final concentration). The reaction was stopped after 10 minutes by addition of formic acid in acetonitrile. 1′-Hydroxymidazolam metabolite formation was measured by an HPLC MS detection method (mobile phases were 0.1% AcOH in 5% MeOH, and 0.1% AcOH in 95% MeOH; the HPLC column was an Onyx Monolithic C18 CHO-7645 HPLC column obtained from Phenomenex; Shimadzu LC-10ADVP equipped Biomek FX Liquid handling system and CTC Analytics PAL well auto-sampler; Mass spectrometer: Applied Biosystems API 3000 using Analyst 1.4.1 software). Inhibition was determined by the ratio of the amount of 1′-hydroxy midazolam metabolite formed in the presence of test compound to the amount of metabolite found in the absence of test compound Inhibition was measured relative to the rate of formation of 1′-hydroxy midazolam incubated at 2.5 μM without test compound.

[2] = In vivo pharmacokinetics, IV and oral gavage; parameters: species or system male Sprague-Dawley rats; conditions: rat; for FPO: Table 5; for Fpo (%): Table 6; for clearance / AUC(0-t) / Cmax / Vd: male, Sprague-Dawley, plasma; for Vd: read-out: Vss
Description: In vivo pharmacokinetic parameters were determined by measuring systemic plasma exposure in male Sprague-Dawley rats (Charles River Laboratories or Taconic, Oxnard, Calif.) by intravenous administration (N=3 fed rats: 2 mg/kg tail vein injection in DMSO) and oral gavage (N=3 fasted rats: 5 mg/kg in 1% Tween 80-2% HPMC-97% deionized water-pH 2.0 vehicle) (Comparative Example 18′ was only dosed IV and at 0.5 mg/kg). DMSO was obtained from Mallinckrodt Inc.; Tween 80 was obtained from Croda; HPMC is Methocel E50 Premium LV, obtained from Dow Excipients. Following oral administration, blood was drawn (250 μL) at 0.25, 0.5, 1, 2, 4, 6, 8, 12, and 16 hours. Following iv administration, blood was drawn (250 μL) at 0.083, 0.25, 0.5, 1, 2, 4, 6, 8, and 16 hours. Blood samples were drawn using a Culex® In Vivo Sampling System (BASi) and collected in BD Microtainer® tubes containing Lithium Heparin (BD). Plasma was obtained by centrifugation of blood at 14000 g and 2-8° C. for five minutes using an Eppendorf 5417R Centrifuge System. Plasma samples were mixed with 2× volume of acetonitrile (Sigma-Aldrich, St. Louis, Mo.). The mixture was stirred briefly using a vortex mixer and then centrifuged at 2867 g for 5 minutes in a Beckman Coulter Allegra 25R equipped with a Type S5700 rotor. The supernatant was removed and diluted 2× with mobile phase A (5/94.9/0.1 v/v/v MeOH/water/AcOH). Plasma concentrations were determined using liquid chromatography/tandem mass spectrometry, with electrospray ionization (ESI) and multiple reaction monitoring in the positive ion mode (Sciex API 3000 mass spectrometer connected to a Shimadzu LC-20AD pump and a LEAP PAL autosampler. Typical conditions used for HPLC were: mobile phase A=5/94.9/0.1 v/v/v MeOH/water/AcOH and mobile phase B=95/4.9/0.1 v/v/v MeOH/water/AcOH; HPLC column was a Varian MonoChrom C18.3μ for 2×30 mm and 51.1 for 2×50 mm) Instrument response was calibrated by a standard curve over 0.1-2000 ng/mL concentration range, and the lower limit of quantitation was 0.1-2.5 ng/mL. Peak areas were integrated on a Windows 2000 computer using the Sciex program Analyst® (Version 1.4.1). Following peak area integration, the data were exported to the software package (Watson® Non-GLP PROD (Version 7.0.0.01, Thermo Electron Corp., Waltham, Mass.)), where concentrations were determined by a weighted linear regression of peak area versus the nominal concentrations of the calibration standards. Calculations were performed on unrounded numbers. The Watson® Non-GLP PROD software was used to determine precision and accuracy for the calibration standards. Noncompartmental analysis of plasma concentration data was used to generate PK parameters such as clearance (CL, L/h/kg), volume of distribution (Vss, L/kg), area under the curve (AUC, ng·h/mL) and secondary parameters such as half-life (t1/2, h) and oral bioavailability (% F, %). This was done using WinNonlin Enterprise software (Version 5.1.1, from Pharsight Corp., Mountain View, Calif.). References for pharmacokinetic analysis include: Gabrielsson and Weiner (1997) Pharmacokinetic and Pharmacodynamic Data Analysis Concepts and Applications, 2nd ed., Swedish Pharmaceutical Press, Stockholm; Gibaldi and Perrier (1982) Pharmacokinetics, 2nd ed., Marcel Dekker, New York. Rowland and Tozer (1995) Clinical Pharmacokinetics: Concepts and Applications, 3rd ed., Lippincott Williams & Wilkins, Philadelphia.

[3] = IV 2 mg/kg, read-out: IV AUClast
[4] = PO 5 mg/kg, read-out: Oral AUClast
[5] = PO 5 mg/kg, read-out: Oral Cmax

SMILES | inhibition at 10 min, 3 μM [1] | FPO ([2]; PO 5 mg/kg, IV 2 mg/kg) | Fpo (%) ([2]; PO 5 mg/kg, IV 2 mg/kg) | clearance ([2]; IV 2 mg/kg) | AUC(0-t) [2, 3] | Cmax ([2]; IV 2 mg/kg, read-out: IV Cmax) | Vd ([2]; IV 2 mg/kg) | AUC(0-t) [2, 4] | Cmax [2, 5]
N[C@H](CNc1ncc(-c2ccc3cnc(F)cc3c2)s1)CN1CCC(C(F)(F)F)CC1 [Example 25, N—((R)-2-Amino-3-(4-(trifluoromethyl)piperidin-1-yl)propyl)-5-(3-fluoroisoquinolin-6-yl)thiazol-2-amine] | 48% | 55% | 34% | 29.9 mL/min/kg | 1100 ng·h/mL | 396 ng/mL | 9.88 L/kg | 1500 ng·h/mL | 58 ng/mL
CC(F)(F)c1ccc(C[C@H](N)CNc2ncc(-c3ccc4cnc(F)cc4c3)s2)cn1 [Example 7, N—((S)-2-Amino-3-(6-(1,1-difluoroethyl)pyridin-3-yl)propyl)-5-(3-fluoroisoquinolin-6-yl)thiazol-2-amine] | 13% | 42% | 47% | 22.2 mL/min/kg | 1440 ng·h/mL | 432 ng/mL | 6.22 L/kg | 1500 ng·h/mL | 216 ng/mL
CC(F)(F)c1ccc(C[C@H](N)CCc2ncc(-c3ccc4cnc(F)cc4c3)s2)cn1 [Example 50] | 21% | 103% | 85% | 45.1 mL/min/kg | 709 ng·h/mL | 165 ng/mL | 15.3 L/kg | 1820 ng·h/mL | 228 ng/mL
CC(F)(F)c1ccc([C@H](O)[C@H](N)CNc2ncc(-c3ccc4cnc(F)cc4c3)s2)cc1 [Example 38, (1S,2R)-2-Amino-1-(4-(1,1-difluoroethyl)phenyl)-3-((5-(3-fluoro-6-isoquinolinyl)-1,3-thiazol-2-yl)amino)-1-propanol trifluoroacetate] | 9% | 36% | 45% | 8.53 mL/min/kg | 3010 ng·h/mL | 473 ng/mL | 9.48 L/kg | 2730 ng·h/mL | 100 ng/mL
N[C@H](CNc1ncc(-c2ccc3cnc(F)cc3c2)s1)Cc1ccc(Cl)c(F)c1 [Example 44, (2S)-3-(4-Chloro-3-fluorophenyl)-N-1-(5-(3-fluoro-6-isoquinoliny)-1,3-thiazol-2-yl)-1-2-propanediamine] | 48% | 65% | 67% | 8.2 mL/min/kg | 2030 ng·h/mL | 292 ng/mL | 11.4 L/kg | 3290 ng·h/mL | 261 ng/mL
N[C@H](CCc1ncc(-c2ccc3cnc(F)cc3c2)s1)[C@@H](O)c1ccc(C(F)(F)F)cc1 [Example 36, (1S,2R)-2-Amino-4-(5-(3-fluoroisoquinolin-6-yl)thiazol-2-yl)-1-(4-(trifluoromethyl)phenyl)butan-1-ol trifluoroacetate] | 0% | 64% | 66% | 14.6 mL/min/kg | 1600 ng·h/mL | 210 ng/mL | 14.4 L/kg | 2560 ng·h/mL | 206 ng/mL
COCc1nc(NC[C@@H](N)Cc2ccc(C(F)(F)F)nc2)sc1-c1ccc2cnc(F)cc2c1 [Example 18, N—((S)-2-Amino-3-(6-(trifluoromethyl)pyridin-3-yl)propyl)-5-(3-fluoroisoquinolin-6-yl)-4-(methoxymethyl)thiazol-2-amine] | 0% | 40% | 48% | 17.6 mL/min/kg | 1640 ng·h/mL | 422 ng/mL | 8.08 L/kg | 1640 ng·h/mL | 233 ng/mL

Other lines, results leading:

inhibition at 10 min, 3 μM [1] | FPO ([2]; PO 5 mg/kg, IV 2 mg/kg) | Fpo (%) ([2]; PO 5 mg/kg, IV 2 mg/kg) | clearance ([2]; IV 2 mg/kg) | AUC(0-t) [2, 3] | Cmax ([2]; IV 2 mg/kg, read-out: IV Cmax) | Vd ([2]; IV 2 mg/kg) | AUC(0-t) [2, 4] | Cmax [2, 5] | SMILES
48% | 28% | 28% | 9.02 mL/min/kg | 3130 ng·h/mL | 803 ng/mL | 3.41 L/kg | 2150 ng·h/mL | 268 ng/mL | N[C@H](CNc1ncc(-c2ccc3cnc(F)cc3c2)s1)[C@@H](CO)c1ccc(C(F)(F)F)cc1 [Example 33, (2S,3S)-3-Amino-4-(5-(3-fluoroisoquinolin-6-yl)thiazol-2-ylamino)-2-(4-(trifluoromethyl)phenyl)butan-1-ol]
0% | 61% | 52% | 12.5 mL/min/kg | 2040 ng·h/mL | 426 ng/mL | 7.17 L/kg | 3100 ng·h/mL | 316 ng/mL | C[C@@H](c1ccc(C(F)(F)F)cc1)[C@H](N)CNc1ncc(-c2ccc3cnc(F)cc3c2)s1 [Example 10, N-((2S,3S)-2-Amino-3-(4-(trifluoromethyl)phenyl)butyl)-5-(3-fluoroisoquinolin-6-yl)thiazol-2-amine]
0% | 4% | 65% | 21.6 mL/min/kg | 1530 ng·h/mL | 959 ng/mL | 2.59 L/kg | 165 ng·h/mL | 25 ng/mL | N[C@H](CNc1ncc(-c2ccc3cnc(F)cc3c2)s1)Cc1ccc(C(F)(F)F)cc1 [Example 4, N—((S)-2-Amino-3-(4-(trifluoromethyl)phenyl)propyl)-5-(3-fluoroisoquinolin-6-yl)thiazol-2-amine trifluoroacetate]
75% | 40% | 57% | 12.1 mL/min/kg | 2370 ng·h/mL | 531 ng/mL | 5.19 L/kg | 2380 ng·h/mL | 302 ng/mL | N[C@H](CNc1ncc(-c2ccc3cnc(F)cc3c2)s1)Cc1ccc(C(F)(F)F)nc1 [Example 2, (2S)—N-(5-(3-Fluoro-6-isoquinolinyl)-1,3-thiazol-2-yl)-3-(6-(trifluoromethyl)-3-pyridinyl)-1,2-propanediamine]
